Measured values taken from patent publication US20020143059A1, “Skin care product containing retinoids, retinoid booster and phytoestrogens in a dual compartment package” (priority 2000, published 2002).
Values belong to the compound of their own block, whether it stands above or below them.

Columns and labels:
[1] = system: retinoic acid oxidation (cytochrome P450 systems); test: Assay for NADPH Dependent Retinoic Acid Oxidation, liver microsomes; assay type: biochemical, rat; conditions: for % Inhibition Retinoic Acid (100 μM): 100 μM compound; for % Inhibition Retinoic Acid (10 μM): 10 μM compound
[2] = Retinol stability in the presence of boosters (OD 360 nm); assay type: physicochemical; conditions: booster approximately 0.1%, 60 hours at room temperature in the dark, approx. 50% aqueous ethanol
Experimental: Retinol (50% in tween 80) was dissolved in approximately 50% aqueous ethanol to provide a solution giving an OD at 360 nm of approximately 0.6 when measured in a 200 μl volume in a 96 well plate using a standard 96 well spectrophotometer.
Booster molecules were added at approximately 0.1% concentration and the OD 360 measured as above immediately and after 60 hours at room temperature in the dark. A correction was applied to the OD after 60 hours (divide by 0.85) to account for increased concentration of the retinol due to evaporation of solvent from the plate.

TGase I = test: Transglutaminase (TGase I ELISA) assay in cultured keratinocytes; assay type: cell-based; conditions: booster in combination with a constant retinol concentration of 10^−7M; read-out: Overall TG (IC 50)
LRAT = target: T1, LRAT (Bos taurus, UniProt Q9BGL2); test: Assay for LRAT activity, RPE microsomes; assay type: biochemical, bovine; conditions: for % Inhibition LRAT (10 μm): 10 μm compound; for % Inhibition LRAT (100 μm): 100 μm compound
T1 construct: followed by approximately 15 μg of RPE microsomal protein; tissue W. L. Lawson Co., Lincoln, Nebr; host or cells: bovine retinal pigment epithelium microsomes
T1 sequence (Q9BGL2 1-230): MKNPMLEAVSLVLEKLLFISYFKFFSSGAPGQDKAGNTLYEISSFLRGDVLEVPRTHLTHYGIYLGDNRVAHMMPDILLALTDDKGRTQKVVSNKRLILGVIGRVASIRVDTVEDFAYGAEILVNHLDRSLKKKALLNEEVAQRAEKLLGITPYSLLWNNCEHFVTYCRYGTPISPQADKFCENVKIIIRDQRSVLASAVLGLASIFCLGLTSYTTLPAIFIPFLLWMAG

ARAT = test: Assay for ARAT activity, RPE microsomes; assay type: biochemical, bovine; conditions: for % Inhibition ARAT (10 μm): 10 μm compound; for % Inhibition ARAT (100 μm): 100 μm compound

Compound: CC(C)(C(=O)c1cccnc1)c1cccnc1 [2-Methyl-1,2-di-3-Pyridyl-1-Propane]
% Inhibition Retinoic Acid (100 μM) [1]: 47%

Compound: Oc1cccc2cccnc12 [8 OH QUINOLINE]
FOLD INCREASE IN RATE OF RETINOL LOSS [2]: 1.5 fold

Compound: O=c1c2cccc3cccc(c32)c2nc3ccccc3n12 [(7H-Benzimidazo[2,1-a]Benz[de]-Isoquinolin-7-one]
IC50 (TGase I): 0.859 µM

Compound: CCCCCCCCCCCCC/C=C/[C@@H](O)[C@H](CO)NC(C)=O [Acetyl Sphingosine]
% Inhibition LRAT (10 μm) (LRAT): 10% +/− 10
% Inhibition LRAT (100 μm) (LRAT): 50% +/− 18
% Inhibition ARAT (10 μm) (ARAT): 19% +/− 12
% Inhibition ARAT (100 μm) (ARAT): 62% +/− 11
IC50 (TGase I): 6.78 µM

Compound: C/C=C\C(=O)C1C(C)=CCCC1(C)C (stereo not drawn) [Alpha-Damascone]
% Inhibition LRAT (10 μm) (LRAT): 87% +/− 6
% Inhibition LRAT (100 μm) (LRAT): 98% +/− 1
IC50 (TGase I): 335 µM

Compound: CC(=O)/C=C/C1C(C)=CCCC1(C)C (stereo not drawn) [Alpha=Ionone]
FOLD INCREASE IN RATE OF RETINOL LOSS [2]: 1.3 fold
IC50 (TGase I): 927 µM

Compound: CC(C)=CCCC(C)CCO (stereo not drawn) [Citronellol]
% Inhibition ARAT (100 μm) (ARAT): 30%

Compound: CC(/C=C/C=C(\C)C(=O)O)=C\C=C\C=C(C)\C=C\C=C(/C)C(=O)O [Crocetin]
% Inhibition ARAT (10 μm) (ARAT): 15%
% Inhibition ARAT (100 μm) (ARAT): 34%

Compound: CC(=O)CCC1C(C)=CCCC1(C)C (stereo not drawn) [Dihydro Alpha-Ionone]
% Inhibition LRAT (100 μm) (LRAT): 18%
% Inhibition ARAT (100 μm) (ARAT): 13%

Compound: CC(C)=CCCC(C)=CCCC(C)=CCO [Farnesol]
% Inhibition ARAT (10 μm) (ARAT): 23% +/− 18
% Inhibition ARAT (100 μm) (ARAT): 53% +/− 18

Compound: CC12CCC(C1)C(C)(C)C2O (stereo not drawn) [Fenchyl Alcohol]
% Inhibition ARAT (100 μm) (ARAT): 12%

Compound: CC(C)=CCC/C(C)=C/CC/C(C)=C/CC/C(C)=C/CO [Geranyl Geraniol]
% Inhibition ARAT (10 μm) (ARAT): 38% +/− 12
% Inhibition ARAT (100 μm) (ARAT): 81% +/− 6

Compound: CCCCCC(N)=O [Hexanoamide]
% Inhibition ARAT (100 μm) (ARAT): 20%

Now from value to compound, other results behind:

% Inhibition LRAT (100 μm) (LRAT): 77%
Compound: CCC(=O)/C=C/C1C(C)=CCCC1(C)C (stereo not drawn) [Alpha-Methyl Ionone]
% Inhibition ARAT (100 μm) (ARAT): 67%

% Inhibition LRAT (10 μm) (LRAT): 52%
% Inhibition LRAT (100 μm) (LRAT): 92%
Compound: C/C=C/C(=O)C1=C(C)CCCC1(C)C [Beta-Damascone]

% Inhibition Retinoic Acid (10 μM) [1]: 89%
% Inhibition Retinoic Acid (100 μM) [1]: 100%
Compound: c1ccc(-c2ccc(C(c3ccccc3)n3ccnc3)cc2)cc1 (stereo not drawn) [Bifonazole]

% Inhibition LRAT (100 μm) (LRAT): 75%
Compound: CC1=CCC(CCC(C)CO)C1(C)C (stereo not drawn) [Brahmanol]
% Inhibition ARAT (100 μm) (ARAT): 70%

FOLD INCREASE IN RATE OF RETINOL LOSS [2]: 1.4 fold
Compound: O=c1ccc2ccccc2o1 [COUMARIN]

FOLD INCREASE IN RATE OF RETINOL LOSS [2]: 3.1 fold
Compound: CC(C)=CCCC(C)=CC=O [Citral]
% Inhibition ARAT (100 μm) (ARAT): 20%

% Inhibition Retinoic Acid (10 μM) [1]: 80%
% Inhibition Retinoic Acid (100 μM) [1]: 92%
Compound: CC(C)(C)C(=O)C(Oc1ccc(Cl)cc1)n1ccnc1 (stereo not drawn) [Climbazole]

% Inhibition Retinoic Acid (10 μM) [1]: 76%
Compound: Clc1ccccc1C(c1ccccc1)(c1ccccc1)n1ccnc1 [Clotrimazole]

% Inhibition LRAT (10 μm) (LRAT): 29%
% Inhibition LRAT (100 μm) (LRAT): 79%
Compound: C/C=C/C(=O)C1=C(C)C=CCC1(C)C [Damascenone]

% Inhibition LRAT (10 μm) (LRAT): 64%
% Inhibition LRAT (100 μm) (LRAT): 95%
Compound: C/C=C/C(=O)C1C(C)C=CCC1(C)C (stereo not drawn) [Delta-Damascone]

% Inhibition LRAT (10 μm) (LRAT): 0%
% Inhibition LRAT (100 μm) (LRAT): 17% +/− 17
Compound: CCCCCCCC(=O)OC[C@H](COP(=O)(O)OCCN)OC(=O)CCCCCCC [Dioctylphosphatidyl Ethanolamine]
% Inhibition ARAT (10 μm) (ARAT): 23%

% Inhibition Retinoic Acid (10 μM) [1]: 88%
% Inhibition Retinoic Acid (100 μM) [1]: 100%
Compound: Clc1ccc(COC(Cn2ccnc2)c2ccc(Cl)cc2Cl)cc1 (stereo not drawn) [Econazole]

% Inhibition LRAT (100 μm) (LRAT): 49%
Compound: CCOC(=O)C1=C(C)C=CCC1(C)C [Ethyl Saffranate]

% Inhibition LRAT (100 μm) (LRAT): 38%
Compound: CC(=O)/C(C)=C/C1C(C)=CCCC1(C)C (stereo not drawn) [Gamma-Methyl Ionone]

FOLD INCREASE IN RATE OF RETINOL LOSS [2]: 1.3 fold
Compound: CC(C)=CCC/C(C)=C/CO [Geraniol]
% Inhibition ARAT (10 μm) (ARAT): 13%
% Inhibition ARAT (100 μm) (ARAT): 32%

% Inhibition LRAT (100 μm) (LRAT): 37% +/− 9
IC50 (TGase I): 99.9 µM
Compound: CCCCCCCCCCCCC/C=C/[C@@H](O)[C@H](CO)NC(=O)CCCCC [Hexanoyl Sphingosine]

% Inhibition LRAT (100 μm) (LRAT): 35%
IC50 (TGase I): 32.9 µM
Compound: CCCCCCCCCCC(O)C(=O)NCCO (stereo not drawn) [Hydroxyethyl-2-Hydroxy-C12 Amide]

% Inhibition LRAT (100 μm) (LRAT): 16%
Compound: CC1=CC(C)C(CO)C(C)C1 (stereo not drawn) [Isocyclogeraniol]
% Inhibition ARAT (100 μm) (ARAT): 18%

% Inhibition LRAT (100 μm) (LRAT): 92%
Compound: CC=CC(=O)C1CCC(C)(C)C=C1C (stereo not drawn) [Isodamascone]
% Inhibition ARAT (100 μm) (ARAT): 80%
